Results from patent US20260345619A1 (Principia Biopharma Inc., priority 2023, published 2026).

Experiment: Pre-bronchodilator FEV1 and percent predicted FEV1 by spirometry, change from baseline
Assay type: in vivo, human
Conditions: for Change from baseline in pre-bronchodilator FEV1, LS Mean (SE) / Change from baseline in pre-bronchodilator FEV1, LS Mean Diff vs. placebo (95% CI) / Change from baseline in pre-bronchodilator FEV1, Mean (SD): EOT (Week 12); for FEV1 change / improvement (in words): following ICS/LABA withdrawal, both cohorts
Description: Spirometry is a standard test to measure patients' lung function.
The primary endpoint was the proportion of patients with LOAC. The key secondary endpoint for the study was change in pre-bronchodilator FEV1 from baseline at EOT.
Reversibility is defined as an increase of the absolute FEV1 after administration of bronchodilator and is measured by spirometry as postbronchodilator increase in FEV1 in percent of the prebronchodilator FEV1. After spirometry for measuring prebronchodilator FEV1, participants were to receive 2-4 puffs of albuterol/salbutamol or levalbuterol/levosalbutamol from a primed MDI. The postbronchodilator spirometry may have been repeated several times within 30 minutes after administration of bronchodilator. Alternatively, and only if it was consistent with usual office practice (to be documented), reversibility may have been performed using inhalation of nebulized albuterol/salbutamol or levalbuterol/levosalbutamol.
Secondary endpoints included pre-bronchodilator FEV1 change from baseline at EOT, ACQ-5 score change from baseline, and AQLQ score change from baseline. Other secondary and exploratory endpoints are described in Table 2.

[1] = 400 mg TID, Week 12, baseline FeNO ≥35 ppb
[2] = 400 mg TID, Week 12, baseline IgA <2190 mg/L (median)
[3] = 400 mg TID, Week 12, baseline IgA ≥2190 mg/L (median)
[4] = 400 mg TID, Week 12, baseline IgE <100 IU/mL
[5] = 400 mg TID, Week 12, baseline IgE <121.85 IU/mL (median)
[6] = 400 mg TID, Week 12, baseline IgE ≥100 IU/mL
[7] = 400 mg TID, Week 12, baseline IgE ≥121.85 IU/mL (median)
[8] = 400 mg TID, Week 12, baseline blood eosinophils <0.15 10^9/L
[9] = 400 mg TID, Week 12, baseline blood eosinophils <0.3 10^9/L
[10] = 400 mg TID, Week 12, baseline blood eosinophils ≥0.15-<0.3 10^9/L
[11] = 400 mg TID, Week 12, baseline blood eosinophils ≥0.3 10^9/L
[12] = 400 mg TID, Week 12, baseline percent predicted FEV1 <77% (median)
[13] = 400 mg TID, Week 12, baseline percent predicted FEV1 <80%
[14] = 400 mg TID, Week 12, baseline percent predicted FEV1 ≥77% (median)
[15] = 400 mg TID, Week 12, baseline percent predicted FEV1 ≥80%
[16] = 400 mg TID, Week 12, baseline weight ≥60-<90 kg
[17] = 400 mg TID, Week 12, baseline weight ≥90 kg
[18] = 400 mg TID, Week 12, smoking history Former
[19] = 400 mg TID, Week 12, smoking history Never
[20] = 400 mg TID, low EOS (<0.15) and low FeNO (<25), mITT
[21] = 400 mg TID, Week 2, observed/LOCF imputed, mITT
[22] = 400 mg TID, Week 4, observed/LOCF imputed, mITT
[23] = 400 mg TID, Week 6, observed/LOCF imputed, mITT
[24] = 400 mg TID, Week 8, observed/LOCF imputed, mITT
[25] = 400 mg TID, Week 10, observed/LOCF imputed, mITT
[26] = 400 mg TID, Week 12 (EOT), MMRM supplementary analysis, mITT
[27] = 400 mg TID, Week 12 (EOT), MMRM, mITT
[28] = 400 mg TID, Week 12, observed/LOCF imputed, mITT
[29] = 400 mg TID, Week 12, reduced model, mITT

SMILES: CC(C)(C=C(C#N)C(=O)N1CCC[C@@H](n2nc(-c3ccc(Oc4ccccc4)cc3F)c3c(N)ncnc32)C1)N1CCN(C2COC2)CC1 (mixture of isomers) [rilzabrutinib, (R)-2-[3-[4-amino-3-(2-fluoro-4-phenoxy-phenyl)pyrazolo[3,4-d]pyrimidin-1-yl]piperidine-1-carbonyl]-4-methyl-4-[4-(oxetan-3-yl)piperazin-1-yl]pent-2-enenitrile]
- Pre-bronchodilator FEV1 change from baseline, LS Mean Diff vs. placebo [1]: -0.12 L
- Pre-bronchodilator FEV1 change from baseline, Mean [1]: -0.07 L
- Pre-bronchodilator FEV1 change from baseline, LS Mean [2]: -0.12 L
- Pre-bronchodilator FEV1 change from baseline, LS Mean Diff vs. placebo [2]: -0.09 L
- Pre-bronchodilator FEV1 change from baseline, Mean [2]: -0.12 L
- Pre-bronchodilator FEV1 change from baseline, LS Mean [3]: -0.15 L
- Pre-bronchodilator FEV1 change from baseline, LS Mean Diff vs. placebo [3]: -0.09 L
- Pre-bronchodilator FEV1 change from baseline, Mean [3]: -0.17 L
- Pre-bronchodilator FEV1 change from baseline, LS Mean [4]: -0.10 L
- Pre-bronchodilator FEV1 change from baseline, LS Mean Diff vs. placebo [4]: -0.11 L
- Pre-bronchodilator FEV1 change from baseline, Mean [4]: -0.20 L
- Pre-bronchodilator FEV1 change from baseline, LS Mean [5]: -0.16 L
- Pre-bronchodilator FEV1 change from baseline, LS Mean Diff vs. placebo [5]: -0.08 L
- Pre-bronchodilator FEV1 change from baseline, Mean [5]: -0.17 L
- Pre-bronchodilator FEV1 change from baseline, LS Mean [6]: -0.13 L
- Pre-bronchodilator FEV1 change from baseline, LS Mean Diff vs. placebo [6]: -0.07 L
- Pre-bronchodilator FEV1 change from baseline, Mean [6]: -0.12 L
- Pre-bronchodilator FEV1 change from baseline, LS Mean [7]: -0.33 L
- Pre-bronchodilator FEV1 change from baseline, LS Mean Diff vs. placebo [7]: -0.11 L
- Pre-bronchodilator FEV1 change from baseline, Mean [7]: -0.13 L
- Pre-bronchodilator FEV1 change from baseline, LS Mean [8]: -0.17 L
- Pre-bronchodilator FEV1 change from baseline, LS Mean Diff vs. placebo [8]: -0.05 L
- Pre-bronchodilator FEV1 change from baseline, Mean [8]: -0.17 L
- Pre-bronchodilator FEV1 change from baseline, LS Mean [9]: -0.13 L
- Pre-bronchodilator FEV1 change from baseline, LS Mean Diff vs. placebo [9]: -0.05 L
- Pre-bronchodilator FEV1 change from baseline, Mean [9]: -0.15 L
- Pre-bronchodilator FEV1 change from baseline, LS Mean [10]: -0.04 L
- Pre-bronchodilator FEV1 change from baseline, LS Mean Diff vs. placebo [10]: -0.04 L
- Pre-bronchodilator FEV1 change from baseline, Mean [10]: -0.10 L
- Pre-bronchodilator FEV1 change from baseline, LS Mean [11]: -0.16 L
- Pre-bronchodilator FEV1 change from baseline, LS Mean Diff vs. placebo [11]: -0.20 L
- Pre-bronchodilator FEV1 change from baseline, Mean [11]: -0.16 L
- Pre-bronchodilator FEV1 change from baseline, LS Mean [12]: -0.03 L
- Pre-bronchodilator FEV1 change from baseline, LS Mean Diff vs. placebo [12]: -0.04 L
- Pre-bronchodilator FEV1 change from baseline, Mean [12]: -0.10 L
- Pre-bronchodilator FEV1 change from baseline, LS Mean [13]: -0.09 L
- Pre-bronchodilator FEV1 change from baseline, LS Mean Diff vs. placebo [13]: -0.08 L
- Pre-bronchodilator FEV1 change from baseline, Mean [13]: -0.13 L
- Pre-bronchodilator FEV1 change from baseline, LS Mean [14]: -0.21 L
- Pre-bronchodilator FEV1 change from baseline, LS Mean Diff vs. placebo [14]: -0.13 L
- Pre-bronchodilator FEV1 change from baseline, Mean [14]: -0.19 L
- Pre-bronchodilator FEV1 change from baseline, LS Mean [15]: -0.20 L
- Pre-bronchodilator FEV1 change from baseline, LS Mean Diff vs. placebo [15]: -0.11 L
- Pre-bronchodilator FEV1 change from baseline, Mean [15]: -0.17 L
- Pre-bronchodilator FEV1 change from baseline, LS Mean [16]: -0.13 L
- Pre-bronchodilator FEV1 change from baseline, LS Mean Diff vs. placebo [16]: -0.07 L
- Pre-bronchodilator FEV1 change from baseline, Mean [16]: -0.15 L
- Pre-bronchodilator FEV1 change from baseline, LS Mean [17]: -0.15 L
- Pre-bronchodilator FEV1 change from baseline, LS Mean Diff vs. placebo [17]: -0.05 L
- Pre-bronchodilator FEV1 change from baseline, Mean [17]: -0.17 L
- Pre-bronchodilator FEV1 change from baseline, LS Mean (400 mg TID, Week 12, female): -0.11 L
- Pre-bronchodilator FEV1 change from baseline, LS Mean Diff vs. placebo (400 mg TID, Week 12, female): -0.09 L
- Pre-bronchodilator FEV1 change from baseline, Mean (400 mg TID, Week 12, female): -0.14 L
- Pre-bronchodilator FEV1 change from baseline, LS Mean (400 mg TID, Week 12, male): -0.15 L
- Pre-bronchodilator FEV1 change from baseline, LS Mean Diff vs. placebo (400 mg TID, Week 12, male): -0.09 L
- Pre-bronchodilator FEV1 change from baseline, Mean (400 mg TID, Week 12, male): -0.16 L
- Pre-bronchodilator FEV1 change from baseline, LS Mean [18]: -0.12 L
- Pre-bronchodilator FEV1 change from baseline, LS Mean Diff vs. placebo [18]: -0.05 L
- Pre-bronchodilator FEV1 change from baseline, Mean [18]: -0.21 L
- Pre-bronchodilator FEV1 change from baseline, LS Mean [19]: -0.13 L
- Pre-bronchodilator FEV1 change from baseline, LS Mean Diff vs. placebo [19]: -0.09 L
- Pre-bronchodilator FEV1 change from baseline, Mean [19]: -0.15 L
- Difference vs. placebo, LS mean change in pre-bronchodilator FEV1 (L) at Week 12 (400 mg TID, 95% CI −0.21, 0.03, p=0.1523): -0.09 L
- Change from baseline in pre-bronchodilator FEV1, LS Mean (SE) (400 mg TID, all others, mITT): -0.09 L
- Change from baseline in pre-bronchodilator FEV1, LS Mean Diff vs. placebo (95% CI) (400 mg TID, all others, mITT): -0.07 L
- Change from baseline in pre-bronchodilator FEV1, Mean (SD) (400 mg TID, all others, mITT, n=30): -0.11 L
- Change from baseline in pre-bronchodilator FEV1, LS Mean (SE) [20]: -0.20 L
- Change from baseline in pre-bronchodilator FEV1, LS Mean Diff vs. placebo (95% CI) [20]: -0.14 L
- Change from baseline in pre-bronchodilator FEV1, Mean (SD) (400 mg TID, low EOS (<0.15) and low FeNO (<25), mITT, n=16): -0.24 L
- LS Mean change from baseline in pre-bronchodilator FEV1 (L) at Week 12 (400 mg TID, N=64, mITT): −0.13 (0.05) L
- Pre-bronchodilator FEV1, mean [21]: 2.47 L
- Pre-bronchodilator FEV1, median [21]: 2.37 L
- Pre-bronchodilator FEV1 change from baseline, LS Mean [21]: -0.05 L
- Pre-bronchodilator FEV1 change from baseline, LS Mean Diff vs. placebo [21]: -0.04 L
- Pre-bronchodilator FEV1 change from baseline, Mean [21]: -0.04 L
- Pre-bronchodilator FEV1 change from baseline, median [21]: -0.02 L
- Pre-bronchodilator FEV1, mean [22]: 2.58 L
- Pre-bronchodilator FEV1, median [22]: 2.50 L
- Pre-bronchodilator FEV1 change from baseline, LS Mean [22]: -0.01 L
- Pre-bronchodilator FEV1 change from baseline, LS Mean Diff vs. placebo [22]: 0.05 L
- Pre-bronchodilator FEV1 change from baseline, Mean [22]: 0.02 L
- Pre-bronchodilator FEV1 change from baseline, median [22]: -0.01 L
- Pre-bronchodilator FEV1, mean [23]: 2.52 L
- Pre-bronchodilator FEV1, median [23]: 2.37 L
- Pre-bronchodilator FEV1 change from baseline, LS Mean [23]: -0.07 L
- Pre-bronchodilator FEV1 change from baseline, LS Mean Diff vs. placebo [23]: 0.04 L
- Pre-bronchodilator FEV1 change from baseline, Mean [23]: -0.07 L
- Pre-bronchodilator FEV1 change from baseline, median [23]: -0.09 L
- Pre-bronchodilator FEV1, mean [24]: 2.41 L
- Pre-bronchodilator FEV1, median [24]: 2.38 L
- Pre-bronchodilator FEV1 change from baseline, LS Mean [24]: -0.07 L
- Pre-bronchodilator FEV1 change from baseline, LS Mean Diff vs. placebo [24]: 0.03 L
- Pre-bronchodilator FEV1 change from baseline, Mean [24]: -0.12 L
- Pre-bronchodilator FEV1 change from baseline, median [24]: -0.10 L
- Pre-bronchodilator FEV1, mean [25]: 2.53 L
- Pre-bronchodilator FEV1, median [25]: 2.50 L
- Pre-bronchodilator FEV1 change from baseline, LS Mean [25]: -0.09 L
- Pre-bronchodilator FEV1 change from baseline, LS Mean Diff vs. placebo [25]: 0.00 L
- Pre-bronchodilator FEV1 change from baseline, Mean [25]: -0.10 L
- Pre-bronchodilator FEV1 change from baseline, median [25]: -0.09 L
- Change from baseline in pre-bronchodilator FEV1, Mean [26]: -0.14 L
- Change from baseline in pre-bronchodilator FEV1, Median [26]: -0.09 L
- Pre-bronchodilator FEV1, Mean [26]: 2.46 L
- Pre-bronchodilator FEV1, Median [26]: 2.40 L
- Change from baseline in pre-bronchodilator FEV1, LS Mean [27]: -0.16 L
- Change from baseline in pre-bronchodilator FEV1, LS Mean diff vs. placebo [27]: -0.08 L
- Change from baseline in pre-bronchodilator FEV1, Mean [28]: -0.15 L
- Change from baseline in pre-bronchodilator FEV1, Median [28]: -0.12 L
- Pre-bronchodilator FEV1, Mean [28]: 2.43 L
- Pre-bronchodilator FEV1, Median [28]: 2.39 L
- Pre-bronchodilator FEV1, mean [28]: 2.43 L
- Pre-bronchodilator FEV1, median [28]: 2.39 L
- Pre-bronchodilator FEV1 change from baseline, LS Mean [28]: -0.13 L
- Pre-bronchodilator FEV1 change from baseline, LS Mean Diff vs. placebo [28]: -0.09 L
- Pre-bronchodilator FEV1 change from baseline, Mean [28]: -0.15 L
- Pre-bronchodilator FEV1 change from baseline, median [28]: -0.12 L
- Change from baseline in pre-bronchodilator FEV1, LS Mean [29]: -0.13 L
- Change from baseline in pre-bronchodilator FEV1, LS Mean diff vs. placebo [29]: -0.09 L
- FEV1 change / improvement (in words): did not exhibit any change in FEV1
- FEV1 change / improvement (in words) (listed as Rilzabrutinib): not associated with an improvement in FEV1 values
